Consider 1 compound from patent publication US20040014671A1, “Preventives or remedies for heart failure” (priority 2000, published 2004).

In the series the test system is anesthetized open-chest rabbits. Description: Cardiac function of anesthetized open-chest rabbit after intravenous administration. The format is in vivo. Here is the method:
The effects of pralmorelin on cardiac function were evaluated by measuring various parameters [blood pressure, heart rate, systolic left ventricular pressure (LVPsys), and maximal positive dP/dt (+dP/dtmax) obtained by differentiating the waveform of left ventricular pressure (LVP)]. The value of the maximal positive dP/dt for the left ventricular pressure (+dP/dtmax) is particularly important to determine if the cardiotonic action is sufficient to treat acute heart failure.
Pralmorelin dihydrochloride (hereunder referred to as KP-102) (prepared by the method described in WO 9304081) was dissolved in distilled water for injection to prepare a 1.5 mg/mL solution.
Male NZW-strain rabbits (Kitayama Labes) weighing about 2 kg were used in the experiment. After arrival, the animals were allowed to eat a solid meal (Labo R Stock, Oriental Yeast Co., Ltd.) and drink water in a room at a temperature of 20±2° C. and at a humidity of 55±15% under 12-hr light/ dark cycles (from 7:00 to 19:00); the animals were kept under these conditions for at least 6 days before use.
Rabbits were anesthetized by administering 30 mg/kg of sodium pentobarbital into the auricular vein at a slow speed with attention to their breathing. The animals were then fixed in supine position and an endotracheal cannula was inserted. Under artificial respiration (tidal volume, 25 mL/breath; ventilation frequency, 45 breaths/min: SN-480-7 of Shinano Seisakusyo), the chest of each animal was opened by midline incision and the pericardium was incised to expose the heart. The left ventricular pressure (LVP) was measured with a pressure transducer (TP-300T, Nihon Kohden) and a pressure amplifier (AG-610G, Nihon Kohden) as a cannula with syringe was inserted from the cardiac apex into the left ventricle. The waveform of LVP was differentiated with a differentiator unit (ED-601, Nihon Kohden) to determine the maximal positive dP/dt(+dP/dtmax), which was used as an index for cardiac contractility. Blood pressure was measured with a pressure amplifier (AP-610G, Nihon Kohden) via a pressure transducer (TP-300T, Nihon Kohden) connected to a cannula inserted into the left femoral artery. Heart rate was measured with a cardiotachometer (AT-601G, Nihon Kohden) that was driven by counting the pulse waves of LVP. The parameters mentioned above were recorded on a recorder (TA-11, Gould). A cannula was inserted into the left femoral vein so as to assist in the administration of the test substance. The rectum temperature of each animal was controlled at 39° C. with a body temperature controller (TK-43, Asahi Denshi). The anesthetic was added as required but additional anesthetization should be avoided during the measurements.
After each parameter stabilized, distilled water (0.2 mL/kg) was administered over one minute with an infusion pump (FP-W-100, Toyo Sangyo K.K.) and observations were made for 5 minutes after the administration to see whether the vehicle would have no effect. About 5 minutes after the administration of distilled water, the test substance was administered with an infusion pump in a volume of 0.2 mL/kg over one minute according to the grouping method specified above. Each hemodynamic parameter was measured both before administration and 1, 3, 5, 10, 15, 20 and 25 minutes after administration and the percent changes from the basal values were calculated. In some animals, measurement was conducted until 40 minutes after the administration of the test substance.
The results were each expressed by mean ± standard deviation. Any difference between groups was tested by repeated measures ANOVA (analysis of variance); The significance level was set at 5%.

Setting [1] is: 300 μg/kg intravenously over one minute, n=4.

Where a SMILES comes first, the peptide text is derived from it. [ ]: non-standard residue; d: D form. d2Nal = N[C@H](Cc1ccc2ccccc2c1)C(=O)O

Consider `C[C@H](NC(=O)[C@@H](Cc1ccc2ccccc2c1)NC(=O)[C@@H](C)N)C(=O)N[C@@H](Cc1c[nH]c2ccccc12)C(=O)N[C@H](Cc1ccccc1)C(=O)N[C@@H](CCCCN)C(N)=O` [KP-102, D-alanyl-3-(naphthalen-2-yl)-D-alanyl-L-alanyl-L-tryptophyl-D-phenylalanyl-L-lysinamide] (H-[dA][d2Nal]AW[dF]K-NH2), for which, where the note is “300 μg/kg intravenously”, the “onset of cardiotonic action (LVPsys, +dP/dtmax) after administration” value is listed as “beginning one minute after the administration”; the “overall effect on heart rate” value is “little affected”; the “time of peak of cardiotonic action after administration” value lay within 5 to 10 min; the “time until blood pressure baseline value practically restored” value was ~25 min. Under setting [1], the “maximum increase in +dP/dtmax, of the baseline value” was found to be 22% and the “maximum increase in LVPsys, of the baseline value” came to 13%. Further, where the note is “300 μg/kg intravenously, 3 minutes after administration”, the “heart rate drop from baseline” value was determined as 2%. For the same compound, the “heart rate increase from baseline” value (300 μg/kg intravenously, 15 minutes after administration) amounted to 1%. Besides, the “heart rate increase from baseline” value (300 μg/kg intravenously, 25 minutes after administration) was determined as 2%. The “time until baseline values (LVPsys, +dP/dtmax) restored” value (300 μg/kg intravenously, one case with extended monitoring) is ≤ 40 min. For the setting “300 μg/kg intravenously, p<0.05”, the “mean blood pressure change vs control group” value is listed as “significant rise of blood pressure”.
